As a reminder, the Solubility is how much of the substance goes into solution per volume. A low value points to little dissolved substance.

Molecules are shown by their SMILES. Entries after “also recorded” stand apart in the source; their conditions may differ. Structures can show the parent of a compound that is named as a salt. Where two headings read alike, the source gives them in different places.

Data set [1] can be described thus: Solubility test in simulated gastric fluid. Type of data set: physicochemical. To be noted: dihydrochloride; for Solubility: 37° C., after 60 minutes, paddle 250 rpm, free body conversion. On the procedure: Solubilities of Crystalline form A and Crystalline form B of Compound (I) in a simulated gastric fluid were measured by the method below (free body conversion).
10 times concentrated Liquid 1 used for the disintegration test of the Japanese Pharmacopoeia (purchased from Kanto Chemical Co., Inc.) was diluted 10-fold with purified water to give a simulated gastric fluid. Approximately 80 mg of the crystalline form for measurement were precisely measured, transferred to a 25 ml volumetric flask, and dissolved in methanol to bring the total volume to 25 ml. 2 ml of the resulting solution were transferred to a 50 ml volumetric flask, and the simulated gastric fluid was added thereto to bring the total volume to 50 ml to give a standard solution.
By using an elution testing machine NTR-6100A (Toyama Sangyo Co., Ltd.), approximately 100 mg of the subject crystalline form were added to 500 ml of the simulated gastric fluid at 37° C., and agitated with a paddle (250 rpm). After 60 minutes, samples were taken from the test solution. The absorbance of the standard solution and test solution samples was measured at 289 nm and 360 nm by using a UV visible spectrophotometer.
weighing amount of the crystalline form used for the preparation of the standard solution (mg): WS;
absorbance of the standard solution at 289 nm: AS289;
absorbance of the standard solution at 360 nm: AS360;
absorbance of the test solution at 289 nm: AT289;
absorbance of the test solution at 360 nm: AT360;
molecular weight of the dihydrochloride monohydrate of Compound (I): 593.52; and
molecular weight of the free body of Compound (I): 502.58

Data set [2] concerns the target T1, peroxisome proliferator-activated receptor (PPAR) γ (Homo sapiens, UniProt P37231).
T1 sequence (P37231 1-505): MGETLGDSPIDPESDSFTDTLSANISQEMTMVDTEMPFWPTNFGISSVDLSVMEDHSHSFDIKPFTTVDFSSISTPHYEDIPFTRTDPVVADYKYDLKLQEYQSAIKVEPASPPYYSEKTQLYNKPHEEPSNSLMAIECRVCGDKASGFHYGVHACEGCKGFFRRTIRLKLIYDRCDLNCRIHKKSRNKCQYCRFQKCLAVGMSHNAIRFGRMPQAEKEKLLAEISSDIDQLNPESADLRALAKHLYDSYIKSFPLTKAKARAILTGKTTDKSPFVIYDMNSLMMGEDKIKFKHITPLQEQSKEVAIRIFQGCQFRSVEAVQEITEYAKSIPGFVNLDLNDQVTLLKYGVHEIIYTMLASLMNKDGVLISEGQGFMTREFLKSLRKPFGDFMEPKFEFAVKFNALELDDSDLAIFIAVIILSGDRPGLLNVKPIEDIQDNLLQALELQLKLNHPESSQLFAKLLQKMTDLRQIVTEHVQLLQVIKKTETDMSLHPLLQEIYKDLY
To be noted: disclosed in Patent Literature 1-5; cited from earlier work.

Data set [3] concerns human leukemia cells. To be noted: Test Example 2 in WO 2007/091622; cited from earlier work.
In data set [4] the test system is human colon cancer cell lines. To be noted: Test Example 3 in WO 2007/091622; cited from earlier work.
Data set [5] relates to human kidney cancer. As to conditions: Test Example 7, cited from earlier work.
The test system of data set [6] is cancer cells. To be noted: cited from earlier work.
In data set [7] the test system is human non-small cell lung cancer. As to conditions: Test Example 5, cited from earlier work.
In data set [8] the test system is human stomach cancer cells, human breast cancer cells, small cell lung cancer, pancreas cancer cells, prostate cancer cells, kidney cancer cells …. As to conditions: Test Example 1 in WO 2007/091622; cited from earlier work.

For the compound `Cc1cc(Oc2ccc3nc(COc4ccc(CC5SC(=O)NC5=O)cc4)n(C)c3c2)cc(C)c1N` (single isomer, unassigned) [Crystalline form A, monohydrate of 5-(4-{[6-(4-amino-3,5-dimethylphenoxy)-1-methyl-1-H-benzimidazol-2-yl]methoxy}benzyl)-1,3-thiazolidine-2,4-dione dihydrochloride], in data set [1], the Solubility is 76.92 µg/mL and the “Solubility, assessment in words” value was “sufficient solubility as a pharmaceutical ingredient”.
As to `Cc1cc(Oc2ccc3nc(COc4ccc(CC5SC(=O)NC5=O)cc4)n(C)c3c2)cc(C)c1N` (single isomer, unassigned) [Crystalline form B, monohydrate of 5-(4-{[6-(4-amino-3,5-dimethylphenoxy)-1-methyl-1-H-benzimidazol-2-yl]methoxy}benzyl)-1,3-thiazolidine-2,4-dione dihydrochloride], in data set [1], the Solubility is 155.25 µg/mL and the “Solubility, assessment in words” value is “sufficient solubility as a pharmaceutical ingredient; also recorded: higher solubility than the Compound (I) which has been known”.
In the case of `Cc1cc(Oc2ccc3nc(COc4ccc(CC5SC(=O)NC5=O)cc4)n(C)c3c2)cc(C)c1N` (centres unmarked) [Compound (I), 5-(4-{[6-(4-amino-3,5-dimethylphenoxy)-1-methyl-1-H-benzimidazol-2-yl]methoxy}benzyl)-1,3-thiazolidine-2,4-dione], the “ability of PPARγ activation” value in data set [2] is “significant ability of peroxisome proliferator-activated receptor (PPAR) γ activation”.
For `Cc1cc(Oc2ccc3nc(COc4ccc(CC5SC(=O)NC5=O)cc4)n(C)c3c2)cc(C)c1N` (centres unmarked) [dihydrochloride of Compound (I), 5-(4-{[6-(4-amino-3,5-dimethylphenoxy)-1-methyl-1-H-benzimidazol-2-yl]methoxy}benzyl)-1,3-thiazolidine-2,4-dione dihydrochloride], in data set [3], the “proliferation suppressing activity in human leukemia cells” value was “inhibits significantly proliferation suppressing activity”. Besides, in data set [4], the “antitumor activity in vivo” value is “significant antitumor activity”. The antitumor activity result in data set [5] (alone) and in data set [7] (alone) was “exerts an antitumor activity” in each case. The “antitumor activity, combination” value in data set [5] (in combination with a VEGFR inhibitor or a Raf kinase inhibitor) and in data set [7] (in combination with an EGFR inhibitor) was “enhanced antitumor activity” throughout. Further, the “activity to suppress proliferation in cancer cells, combination” value in data set [6] (in combination with a VEGFR inhibitor or a Raf kinase inhibitor, Test Example 6) was “synergetic activity to suppress proliferation”; in data set [6] (in combination with an epidermal growth factor receptor (EGFR) inhibitor, Test Example 4), “synergetic activity to suppress proliferation”. The “activity to suppress proliferation of cancer cells” value in data set [8] is “significant activity to suppress proliferation”.

Source of the values: US8552038B2, “Crystalline forms of thiazolidinedione compound and its manufacturing method” (Daiichi Sankyo Company, Limited, priority 2007, dated 2013).
